Values quoted from earlier work in patent publication US7276520B2, “Bicyclic piperidine derivatives as melanocortin-4 receptor agonists” (Merck & Co., Inc., priority 2003, dated 2007).

How the values were obtained:
erectile dysfunction = conditions: for duration of effect / onset of action: after an oral dose; for share of men/patients in whom the drug is effective (adequate response): oral
[1] = in vivo, po
[2] = test system: males with psychogenic erectile dysfunction

Compound	duration of effect (erectile dysfunction)	onset of action (erectile dysfunction) [min]	share of men/patients in whom the drug is effective (adequate response) (erectile dysfunction)	absorption into the systemic circulation [1]	response rate ([2]; injected intramuscularly or subcutaneously, psychogenic erectile dysfunction) [%]	duration of action ([2]; subcutaneous injection)	time to onset of erection ([2]; subcutaneous injection) [min]
Cc1ccc(N(CC2=NCCN2)c2cccc(O)c2)cc1 [phentolamine]	2 h	5 to 30	35-40%				
CCCc1nn(C)c2c(=O)[nH]c(-c3cc(S(=O)(=O)N4CCN(C)CC4)ccc3OCC)nc12 [sildenafil]	about 4 hours	30 to 60	about 70%				
Ac-Nle-c[Asp-His-DPhe-Arg-Trp-Lys]-NH2 [MT-II]				not absorbed into the systemic circulation	75	approximately 2.5 hours	10 to 20
